Where two headings read alike, the source gives them in different places.
What was measured:
ECATS2 (DM-20) = molecular target: T1, ECATS2 (DM-20) (Bacillus sp. PS3, UniProt A0A0M5MQR7, R103A/R115A); experiment: FRET ratio live-cell imaging dose response; type: cell-based
T1 construct: gene uncC; double-mutant epsilon subunit between mseCFP and mVenus, 20 nm alpha-helical ER/K linker to PDGFR transmembrane domain

ecATeam3.10 = molecular target: T2, ecATeam3.10 (Bacillus sp. PS3, UniProt A0A0M5MQR7); experiment: FRET ratio live-cell imaging dose response; type: cell-based; conditions: read-out: apparent dissociation constant
T2 construct: gene uncC; expressed on Neuro2A or HEK293 cells
T2 sequence (A0A0M5MQR7 1-133): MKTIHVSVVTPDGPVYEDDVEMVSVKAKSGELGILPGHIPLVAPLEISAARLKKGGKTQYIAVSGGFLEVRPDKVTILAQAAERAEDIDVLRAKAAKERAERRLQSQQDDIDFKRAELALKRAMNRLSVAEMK

T1 sequence (A0A0M5MQR7 1-133, stated change not applied): as the sequence (A0A0M5MQR7 1-133) above

Row | SMILES | Kd (ECATS2 (DM-20); read-out: apparent ADP dissociation constant) [µM] | Kd (ECATS2 (DM-20); read-out: apparent dissociation constant) [µM] | Kd (ecATeam3.10) [µM]
1 | Nc1ncnc2c1ncn2[C@@H]1O[C@H](COP(=O)(O)OP(=O)(O)O)[C@@H](O)[C@H]1O [ADP] | ~100 | – | –
2 | Nc1ncnc2c1ncn2[C@@H]1O[C@H](COP(=O)(O)OP(=O)(O)OP(=O)(O)O)[C@@H](O)[C@H]1O [ATP] | – | 3.7 ± 0.6 | 12 ± 5
